Measured values: PubChem BioAssay AID1259407 (Chemical Carcinogenesis Research Information System (CCRIS), 2018)
The source made the active and inactive calls. How the calls were made is not given here.

Test system: CCRIS mutagenicity, Ames/micronucleus/aberration tests
Assay: CCRIS mutagenicity studies
From the text: The CCRIS database contains chemical records with carcinogenicity, mutagenicity, tumor promotion, and tumor inhibition test results. It was developed by the National Cancer Institute (NCI). Data are derived from studies cited in primary journals, current awareness tools, NCI reports, and other sources. Test results have been reviewed by experts in carcinogenesis and mutagenesis.
CCRIS provides historical information from the years 1985 - 2011. It is no longer updated.
This is an archive assay for CCRIS mutagenicity studies.

[1] = Test System: AMES SALMONELLA TYPHIMURIUM, Strain/Indicator: TA98, Metabolic Activation: NONE, Method: STANDARD PLATE
[2] = Test System: AMES SALMONELLA TYPHIMURIUM, Strain/Indicator: TA100, Metabolic Activation: NONE, Method: STANDARD PLATE
[3] = Test System: AMES SALMONELLA TYPHIMURIUM, Strain/Indicator: TA102, Metabolic Activation: NONE, Method: STANDARD PLATE
[4] = Test System: AMES SALMONELLA TYPHIMURIUM, Strain/Indicator: TA98, Metabolic Activation: RAT, LIVER, S-9, AROCLOR 1254, Method: STANDARD PLATE

CNc1ncn(C)c1C(=O)N(C)N=O
mutagenic call [1]: inactive; negative
mutagenic call (Test System: AMES SALMONELLA TYPHIMURIUM, Strain/Indicator: TA98, Metabolic Activation: S-9, Method: STANDARD PLATE): inactive; negative
mutagenic call [2]: inactive; negative
mutagenic call (Test System: AMES SALMONELLA TYPHIMURIUM, Strain/Indicator: TA100, Metabolic Activation: S-9, Method: STANDARD PLATE): active; positive
mutagenic call [3]: active; positive
mutagenic call (Test System: AMES SALMONELLA TYPHIMURIUM, Strain/Indicator: TA102, Metabolic Activation: S-9, Method: STANDARD PLATE): active; positive
mutagenic call (Test System: AMES SALMONELLA TYPHIMURIUM, Strain/Indicator: TA1535, Metabolic Activation: S-9, Method: STANDARD PLATE): active; positive
mutagenic call (Test System: AMES SALMONELLA TYPHIMURIUM, Strain/Indicator: TA1537, Metabolic Activation: NONE, Method: STANDARD PLATE): inactive; negative
mutagenic call (Test System: AMES SALMONELLA TYPHIMURIUM, Strain/Indicator: TA1537, Metabolic Activation: S-9, Method: STANDARD PLATE): inactive; negative

O=[N+]([O-])c1cnc2c(c1)nc1ccccn12
mutagenic call [1]: active; positive
mutagenic call (Test System: AMES SALMONELLA TYPHIMURIUM, Strain/Indicator: TA98, Metabolic Activation: RAT, LIVER, CYTOSOL, AROCLOR 1254, Method: STANDARD PLATE): active; positive
mutagenic call (Test System: AMES SALMONELLA TYPHIMURIUM, Strain/Indicator: TA98, Metabolic Activation: RAT, LIVER, MICROSOMES, AROCLOR 1254, Method: STANDARD PLATE): active; positive
mutagenic call [4]: active; positive

O=[N+]([O-])c1ccc2ccc3c4c(cc5ccc1c2c53)[C@@H](O)[C@H](O)[C@@H]1O[C@H]41
mutagenic call (Test System: CHINESE HAMSTER OVARY, Strain/Indicator: CHO-K1-BH4 (HGPRT)/6-THIOGUANINE, Metabolic Activation: NONE): active; positive

COc1cc(N)ccc1NC(C)=O
mutagenic call [1]: inactive; negative
mutagenic call [4]: active; positive

Cc1ccc(C)c(C)c1C
mutagenic call (Test System: AMES SALMONELLA TYPHIMURIUM, Strain/Indicator: TA97A, Metabolic Activation: NONE, Method: STANDARD PLATE): inactive; negative
mutagenic call (Test System: AMES SALMONELLA TYPHIMURIUM, Strain/Indicator: TA97A, Metabolic Activation: RAT LIVER S-9, AROCLOR 1254, Method: STANDARD PLATE): inactive; negative
mutagenic call [1]: inactive; negative
mutagenic call (Test System: AMES SALMONELLA TYPHIMURIUM, Strain/Indicator: TA98, Metabolic Activation: RAT LIVER S-9, AROCLOR 1254, Method: STANDARD PLATE): inactive; negative
mutagenic call [2]: inactive; negative
mutagenic call (Test System: AMES SALMONELLA TYPHIMURIUM, Strain/Indicator: TA100, Metabolic Activation: RAT LIVER S-9, AROCLOR 1254, Method: STANDARD PLATE): inactive; negative
mutagenic call [3]: inactive; negative
mutagenic call (Test System: AMES SALMONELLA TYPHIMURIUM, Strain/Indicator: TA102, Metabolic Activation: RAT LIVER S-9, AROCLOR 1254, Method: STANDARD PLATE): inactive; negative

C1=Cc2ccc3nc4ccc5ccccc5c4cc3c2CC1
mutagenic call (Test System: AMES SALMONELLA TYPHIMURIUM, Strain/Indicator: TA98, Metabolic Activation: GUINEA PIG, LIVER, S-9, 3-METHYLCHOLANTHRENE, Method: STANDARD PLATE): active; positive
mutagenic call (Test System: AMES SALMONELLA TYPHIMURIUM, Strain/Indicator: TA100, Metabolic Activation: GUINEA PIG, LIVER, S-9, 3-METHYLCHOLANTHRENE, Method: STANDARD PLATE): active; positive

O=[N+]([O-])c1ccc2c(c1)CC=C2
mutagenic call [1]: active; positive

CC(C)[N+](C)(CCOC(=O)C1c2ccccc2Oc2ccccc21)C(C)C
mutagenic call (End Point: IN VITRO CHROMOSOMAL ABERRATIONS, Test System: CHINESE HAMSTER OVARY CELLS, Metabolic Activation: NONE): inactive; negative
mutagenic call (End Point: IN VITRO CHROMOSOMAL ABERRATIONS, Test System: CHINESE HAMSTER OVARY CELLS, Metabolic Activation: RAT, LIVER, S-9, AROCLOR 1254): inactive; negative
mutagenic call (Test System: AMES SALMONELLA TYPHIMURIUM, Strain/Indicator: TA97, Metabolic Activation: HAMSTER, LIVER, S-9, AROCLOR 1254 (10 OR 30%), Method: PREINCUBATION): inactive; negative
mutagenic call (Test System: AMES SALMONELLA TYPHIMURIUM, Strain/Indicator: TA97, Metabolic Activation: NONE, Method: PREINCUBATION): inactive; negative
mutagenic call (Test System: AMES SALMONELLA TYPHIMURIUM, Strain/Indicator: TA97, Metabolic Activation: RAT, LIVER, S-9, AROCLOR 1254 (10%), Method: PREINCUBATION): inactive; negative
mutagenic call (Test System: AMES SALMONELLA TYPHIMURIUM, Strain/Indicator: TA97, Metabolic Activation: RAT, LIVER, S-9, AROCLOR 1254 (30%), Method: PREINCUBATION): inactive; negative
mutagenic call (Test System: AMES SALMONELLA TYPHIMURIUM, Strain/Indicator: TA98, Metabolic Activation: HAMSTER, LIVER, S-9, AROCLOR 1254 (10%), Method: PREINCUBATION): inactive; negative
mutagenic call (Test System: AMES SALMONELLA TYPHIMURIUM, Strain/Indicator: TA98, Metabolic Activation: HAMSTER, LIVER, S-9, AROCLOR 1254 (30%), Method: PREINCUBATION): inactive; negative
mutagenic call (Test System: AMES SALMONELLA TYPHIMURIUM, Strain/Indicator: TA98, Metabolic Activation: NONE, Method: PREINCUBATION): inactive; negative
mutagenic call (Test System: AMES SALMONELLA TYPHIMURIUM, Strain/Indicator: TA98, Metabolic Activation: RAT, LIVER, S-9, AROCLOR 1254 (10%), Method: PREINCUBATION): inactive; negative
mutagenic call (Test System: AMES SALMONELLA TYPHIMURIUM, Strain/Indicator: TA98, Metabolic Activation: RAT, LIVER, S-9, AROCLOR 1254 (30%), Method: PREINCUBATION): inactive; negative
mutagenic call (Test System: AMES SALMONELLA TYPHIMURIUM, Strain/Indicator: TA100, Metabolic Activation: HAMSTER, LIVER, S-9, AROCLOR 1254 (10%), Method: PREINCUBATION): inactive; negative
mutagenic call (Test System: AMES SALMONELLA TYPHIMURIUM, Strain/Indicator: TA100, Metabolic Activation: HAMSTER, LIVER, S-9, AROCLOR 1254 (30%), Method: PREINCUBATION): inactive; negative
mutagenic call (Test System: AMES SALMONELLA TYPHIMURIUM, Strain/Indicator: TA100, Metabolic Activation: NONE, Method: PREINCUBATION): inactive; negative
mutagenic call (Test System: AMES SALMONELLA TYPHIMURIUM, Strain/Indicator: TA100, Metabolic Activation: RAT, LIVER, S-9, AROCLOR 1254 (10%), Method: PREINCUBATION): inactive; negative
mutagenic call (Test System: AMES SALMONELLA TYPHIMURIUM, Strain/Indicator: TA100, Metabolic Activation: RAT, LIVER, S-9, AROCLOR 1254 (30%), Method: PREINCUBATION): inactive; negative
mutagenic call (Test System: AMES SALMONELLA TYPHIMURIUM, Strain/Indicator: TA1535, Metabolic Activation: HAMSTER, LIVER, S-9, AROCLOR 1254 (10%), Method: PREINCUBATION): inactive; negative
mutagenic call (Test System: AMES SALMONELLA TYPHIMURIUM, Strain/Indicator: TA1535, Metabolic Activation: HAMSTER, LIVER, S-9, AROCLOR 1254 (30%), Method: PREINCUBATION): inactive; negative
mutagenic call (Test System: AMES SALMONELLA TYPHIMURIUM, Strain/Indicator: TA1535, Metabolic Activation: NONE, Method: PREINCUBATION): inactive; negative
mutagenic call (Test System: AMES SALMONELLA TYPHIMURIUM, Strain/Indicator: TA1535, Metabolic Activation: RAT, LIVER, S-9, AROCLOR 1254 (10%), Method: PREINCUBATION): inactive; negative
mutagenic call (Test System: AMES SALMONELLA TYPHIMURIUM, Strain/Indicator: TA1535, Metabolic Activation: RAT, LIVER, S-9, AROCLOR 1254 (30%), Method: PREINCUBATION): inactive; negative
mutagenic call (Test System: AMES SALMONELLA TYPHIMURIUM, Strain/Indicator: TA1537, Metabolic Activation: HAMSTER, LIVER, S-9, AROCLOR 1254 (10%), Method: PREINCUBATION): inactive; negative
mutagenic call (Test System: AMES SALMONELLA TYPHIMURIUM, Strain/Indicator: TA1537, Metabolic Activation: NONE, Method: PREINCUBATION): inactive; negative
mutagenic call (Test System: AMES SALMONELLA TYPHIMURIUM, Strain/Indicator: TA1537, Metabolic Activation: RAT, LIVER, S-9, AROCLOR 1254 (10%), Method: PREINCUBATION): inactive; negative

CC(C)(C)N.CC(C)(C)N.[Cl][Pt][Cl]
mutagenic call (Test System: AMES SALMONELLA TYPHIMURIUM, Strain/Indicator: TA92, Metabolic Activation: NONE, Method: STANDARD PLATE): inactive; negative
mutagenic call [1]: active; positive
mutagenic call [2]: active; positive
mutagenic call (Test System: AMES SALMONELLA TYPHIMURIUM, Strain/Indicator: TA2410, Metabolic Activation: NONE, Method: STANDARD PLATE): active; positive
